These results are taken from patent US20140073634A1 (Institute For Applied Cancer Science/The University of …, priority 2012, published 2014).

Counter-ions that a name gives are not always drawn.

Broadly, the IC50 is the concentration at which inhibition is half-maximal. Higher therefore signals a need for much substance.

The subject of one test is 293T-HRE-GFP-luc cells. The test is described as follows: Cell-based reporter assay for IC50 determinations (HRE-luciferase, hypoxia). The note with it: 6 h, 6 hrs hypoxia (1% O2), luminescence. Here is the method:
Cell-Based Reporter Assay for IC50 Determinations
293T-HRE-GFP-luc cells were routinely maintained in DMEM media (high glucose version with GlutaMAX and HEPES, Gibco, catalog #10564) supplemented with 10% fetal bovine serum and 2 μg/mL puromycin (Invitrogen, catalog #A11138-03) using a humidified incubator (normoxia conditions consisting of 37° C., 5% CO2 and ambient O2).
In preparation for the reporter assay, cells were harvested and resuspended in DMEM media (high glucose version with GlutaMAX and HEPES) supplemented with 10% fetal bovine serum. Cells were inoculated into 384-well white Culturplates (Perkin Elmer catalog #6007680) at a density of 12,000 cells/well in a volume of […]. The microplates were incubated overnight (approximately 17-19 hours) at 37° C. with 5% CO2 and ambient O2. Stock solutions of the test compounds were prepared in DMSO (Sigma, Catalog #D2650) and serially diluted 1:3 using DMSO. Compounds were additionally diluted (1:50) with culturemedium and 10 µL were added per well to the Culturplate. Following a 30 min. incubation under normoxia conditions, the plates were incubated in hypoxia for 6 hrs. (37° C., 5% CO2 and 1% O2). Steadylite Plus (Perkin Elmer, catalog #6016751) was then added ([…]), the plates were mixed on an orbital shaker at room temperature in the dark for 15 min., and luminescence was measured using an Envision plate reader (Perkin Elmer). IC50 values were calculated using a four-parameter logistic curve fit. Results are shown below in Table 2; ND indicates no data.
In general terms: Reporter assays use an easily measured gene product as a stand-in for the process of interest.
In turn, `O=c1ccc(-c2nc(-c3ccc(OC(F)(F)F)cc3)no2)cn1Cc1cccc(OCC(O)CO)c1` (stereo not shown) [Example 55, 1-(3-(2,3-Dihydroxypropoxy)benzyl)-5-(3-(4-(trifluoromethoxy)phenyl)-1,2,4-oxadiazol-5-yl)pyridin-2(1H)-one] showed an IC50 below 100 nM. With `CS(=O)(=O)C1CCN(c2cccc(Cn3cc(-c4nc(-c5ccc(OC(F)(F)F)cc5)no4)ccc3=O)c2)CC1` [Example 41, 1-{[3-(4-Methanesulfonylpiperidin-1-yl)phenyl]methyl}-5-{3-[4-(trifluoromethoxy)phenyl]-1,2,4-oxadiazol-5-yl}-1,2-dihydropyridin-2-one], the IC50 is below 100 nM.

The molecule `CN1CCN(c2cc(Cn3nc(C(=O)Nc4ccc(OC(F)(F)F)cc4)ccc3=O)ccn2)CC1` [Example 3, 1-(2-(4-Methylpiperazin-1-yl)pyridin-4-yl)methyl)-6-oxo-N-(4-(trifluoromethoxy)phenyl)-1,6-dihydropyridazine-3-carboxamide bis trifluoroacetate salt] yielded an IC50 of 100 to 1000 nM. Consider `CC(=O)SCc1cccc(Cn2cc(-c3nc(-c4ccc(OC(F)(F)F)cc4)no3)ccc2=O)c1` [Example 44, 1-({3-[(Acetylsulfanyl)methyl]phenyl}methyl)-5-{3-[4-(trifluoromethoxy)phenyl]-1,2,4-oxadiazol-5-yl}-1,2-dihydropyridin-2-one], for which the IC50 was below 100 nM. Still for that read-out and setting: to `CN1CCN(c2cccc(Cn3nc(C(=O)Nc4ccc(OC(F)(F)F)cc4)ccc3=O)c2)CC1` [Example 4, 1-(3-(4-Methylpiperazin-1-yl)benzyl)-6-oxo-N-(4-(trifluoromethoxy)phenyl)-1,6-dihydropyridazine-3-carboxamide trifluoroacetate salt] belongs below 100 nM; to `O=C1CN(c2cccc(Cn3cc(-c4nc(-c5ccc(OC(F)(F)F)cc5)no4)ccc3=O)c2)CCN1` [Example 167, 4-{3-[(2-oxo-5-{3-[4-(trifluoromethoxy)phenyl]-1,2,4-oxadiazol-5-yl}-1,2-dihydropyridin-1-yl)methyl]phenyl}piperazin-2-one], below 100 nM.

`O=C(O)CCc1cccc(Cn2cc(-c3nc(-c4ccc(OC(F)(F)F)cc4)no3)ccc2=O)c1` [Example 47, 3-{3-[(2-oxo-5-{3-[4-(trifluoromethoxy)phenyl]-1,2,4-oxadiazol-5-yl}-1,2-dihydropyridin-1-yl)methyl]phenyl}propanoic acid] came in with a 50% inhibitory concentration (IC50) of 100 to 1000 nM.

`CCOc1cccc(Cn2cc(-c3nc(-c4ccc(OC(F)(F)F)cc4)no3)ccc2=O)c1` [Example 148, 1-[(3-ethoxyphenyl)methyl]-5-{3-[4-(trifluoromethoxy)phenyl]-1,2,4-oxadiazol-5-yl}-1,2-dihydropyridin-2-one] registered a 50% inhibitory concentration (IC50) below 100 nM. Molecule `O=C(Cc1cccc(Cn2nc(-c3nc(-c4ccc(OC(F)(F)F)cc4)no3)ccc2=O)c1)N1CCOCC1` [Example 142, 2-({3-[2-(morpholin-4-yl)-2-oxoethyl]phenyl}methyl)-6-{3-[4-(trifluoromethoxy)phenyl]-1,2,4-oxadiazol-5-yl}-2,3-dihydropyridazin-3-one] registered a concentration for half-maximal inhibition (IC50) of 100 to 1000 nM. The same measure, in the same setting: under `NC(=O)c1cccc(Cn2nc(-c3nc(-c4ccc(OC(F)(F)F)cc4)no3)ccc2=O)c1` [Example 132, 3-[(6-oxo-3-{3-[4-(trifluoromethoxy)phenyl]-1,2,4-oxadiazol-5-yl}-1,6-dihydropyridazin-1-yl)methyl]benzamide] stands below 100 nM. Still for that read-out and setting: under `Cc1ncc(-c2nc(-c3ccc(OC(F)(F)F)cc3)no2)nc1Cc1cccc(N2CCN(C)CC2)c1` [Example 90, 5-(5-Methyl-6-(3-(4-methylpiperazin-1-yl)benzyl)pyrazin-2-yl)-3-(4-(trifluoromethoxy)phenyl)-1,2,4-oxadiazole] stands below 100 nM; under `COC(=O)CCc1cccc(Cn2cc(-c3nc(-c4ccc(OC(F)(F)F)cc4)no3)ccc2=O)c1` [Example 46, Methyl 3-{3-[(2-oxo-5-{3-[4-(trifluoromethoxy)phenyl]-1,2,4-oxadiazol-5-yl}-1,2-dihydropyridin-1-yl)methyl]phenyl}propanoate], below 100 nM. The same measure, in the same setting: to `COCCOc1cccc(Cn2cc(-c3noc(-c4ccc(N5CCCS5(=O)=O)cc4)n3)ccc2=O)c1` [Example 66, 5-(5-(4-(1,1-Dioxidoisothiazolidin-2-yl)phenyl)-1,2,4-oxadiazol-3-yl)-1-(3-(2-methoxyethoxy)benzyl)pyridin-2(1H)-one] belongs 100 to 1000 nM; to `O=C(c1cc(Cn2nc(-c3nc(-c4ccc(OC(F)(F)F)cc4)no3)ccc2=O)ccc1F)N1CCOCC1` [Example 129, 2-{[4-fluoro-3-(morpholine-4-carbonyl)phenyl]methyl}-6-{3-[4-(trifluoromethoxy)phenyl]-1,2,4-oxadiazol-5-yl}-2,3-dihydropyridazin-3-one], 100 to 1000 nM. For the molecule `CCOC(=O)CN1CCN(c2cccc(Cn3cc(-c4nc(-c5ccc(OC(F)(F)F)cc5)no4)ccc3=O)c2)CC1=O` [Example 183, ethyl 2-(2-oxo-4-{3-[(2-oxo-5-{3-[4-(trifluoromethoxy)phenyl]-1,2,4-oxadiazol-5-yl}-1,2-dihydropyridin-1-yl)methyl]phenyl}piperazin-1-yl)acetate], the IC50 was below 100 nM.

As to `CN(C)c1cccc(Cn2cc(-c3nc(-c4ccc(OC(F)(F)F)cc4)no3)ccc2=O)c1` [Example 145, 1-{[3-(dimethylamino)phenyl]methyl}-5-{3-[4-(trifluoromethoxy)phenyl]-1,2,4-oxadiazol-5-yl}-1,2-dihydropyridin-2-one], the concentration for half-maximal inhibition (IC50) was below 100 nM. Regarding `COCCOc1cccc(Cn2cc(-c3noc(-c4cnc(NCC(C)C)nc4)n3)ccc2=O)c1` [Example 246], the IC50 was below 100 nM. Still for that read-out and setting: under `CS(=O)(=O)CCCOc1cccc(Cn2cc(-c3nc(-c4ccc(OC(F)(F)F)cc4)no3)ccc2=O)c1` [Example 170, 1-{[3-(3-methanesulfonylpropoxy)phenyl]methyl}-5-{3-[4-(trifluoromethoxy)phenyl]-1,2,4-oxadiazol-5-yl}-1,2-dihydropyridin-2-one] stands 100 to 1000 nM. In the case of `CNS(=O)(=O)c1ccc(-c2nc(-c3ccc(=O)n(Cc4cccc(OCCOC)c4)c3)no2)cc1` [Example 199, 4-[3-(1-{[3-(2-methoxyethoxy)phenyl]methyl}-6-oxo-1,6-dihydropyridin-3-yl)-1,2,4-oxadiazol-5-yl]-N-methylbenzene-1-sulfonamide], the IC50 fell in the range of 100 to 1000 nM.

`COCCOc1cccc(Cn2cc(-c3noc(-c4ccc(N5CCOCC5)cc4)n3)ccc2=O)c1` [Example 200, 1-{[3-(2-methoxyethoxy)phenyl]methyl}-5-{5-[4-(morpholin-4-yl)phenyl]-1,2,4-oxadiazol-3-yl}-1,2-dihydropyridin-2-one] came in with a half-inhibitory concentration (IC50) below 100 nM.

With `CN1CCN(C(=O)Cc2cccc(Cn3nc(-c4nc(-c5ccc(OC(F)(F)F)cc5)no4)ccc3=O)c2)CC1` [Example 143, 2-({3-[2-(4-methylpiperazin-1-yl)-2-oxoethyl]phenyl}methyl)-6-{3-[4-(trifluoromethoxy)phenyl]-1,2,4-oxadiazol-5-yl}-2,3-dihydropyridazin-3-one], the half-inhibitory concentration (IC50) is 100 to 1000 nM. Same read-out and setting: to `COc1ccc(Cn2cc(-c3nc(-c4ccc(OC(F)(F)F)cc4)no3)ccc2=O)cc1` [Example 136, 1-[(4-methoxyphenyl)methyl]-5-{3-[4-(trifluoromethoxy)phenyl]-1,2,4-oxadiazol-5-yl}-1,2-dihydropyridin-2-one] belongs below 100 nM; to `CNC(=O)c1cccc(Cn2nc(-c3nc(-c4ccc(OC(F)(F)F)cc4)no3)ccc2=O)c1` [Example 131, N-methyl-3-[(6-oxo-3-{3-[4-(trifluoromethoxy)phenyl]-1 2 4-oxadiazol-5-yl}-1 6-dihydropyridazin-1-yl)methyl]benzamide], below 100 nM; to `CS(=O)(=O)CCCOc1cccc(Cn2cc(-c3noc(-c4ccc(OC(F)F)cc4)n3)ccc2=O)c1` [Example 207], below 100 nM.

Molecule `NC(=O)c1cccc(Cn2cc(-c3nc(-c4ccc(OC(F)(F)F)cc4)no3)ccc2=O)c1` [Example 25, 3-((2-oxo-5-(3-(4-(trifluoromethoxy)phenyl)-1,2,4-oxadiazol-5-yl)pyridin-1(2H)-yl)methyl)benzamide] registered an IC50 below 100 nM.

With `Cc1ccc(-c2nc(-c3ccc(OC(F)(F)F)cc3)no2)c(=O)n1Cc1cccc(S(N)(=O)=O)c1` [Example 268, 3-[(6-methyl-2-oxo-3-{3-[4-(trifluoromethoxy)phenyl]-1,2,4-oxadiazol-5-yl}-1,2-dihydropyridin-1-yl)methyl]benzene-1-sulfonamide], the IC50 is 100 to 1000 nM. Same read-out and setting: to `O=c1ccc(-c2nc(-c3ccc(OC(F)(F)F)cc3)no2)cn1Cc1cccc(CBr)c1` [Example 171, 1-{[3-(bromomethyl)phenyl]methyl}-5-{3-[4-(trifluoromethoxy)phenyl]-1,2,4-oxadiazol-5-yl}-1,2-dihydropyridin-2-one] belongs below 100 nM.

The same test, now with this note: 6 hrs hypoxia (1% O2), luminescence.
On to `O=c1ccc(-c2nc(-c3ccc(OC(F)(F)F)cc3)no2)cn1Cc1cccc(C(O)CO)c1` (single isomer, unassigned) [Example 53a, (1R)- or (1S)-1-(3-(1,2-dihydroxyethyl)benzyl)-5-(3-(4-(trifluoromethoxy)phenyl)-1,2,4-oxadiazol-5-yl)pyridin-2(1H)-one], for which the half-inhibitory concentration (IC50) is below 100 nM.
